# From patent publication US20250304620A1, “ANTIMICROBIAL PEPTIDE AND APPLICATION THEREOF” (priority 2023, published 2025)
# Marks after values point to notes of the source that are not given here. Non-standard residues stand in square brackets, D forms with d. Residues, ends and D or L forms follow the SMILES beside them. dPhe(3,4-Cl2) = N[C@H](Cc1ccc(Cl)c(Cl)c1)C(=O)O; dPhe(4-CF3) = N[C@H](Cc1ccc(C(F)(F)F)cc1)C(=O)O; dPhe(3,4-F2) = N[C@H](Cc1ccc(F)c(F)c1)C(=O)O; dPhe(4-Br) = N[C@H](Cc1ccc(Br)cc1)C(=O)O; dPhe(4-Cl) = N[C@H](Cc1ccc(Cl)cc1)C(=O)O; dPhe(4-Me) = Cc1ccc(C[C@@H](N)C(=O)O)cc1
# What was measured:
# [1] = test system: Escherichia coli ATCC 25922; experiment: Oral formulations on mice with systemic bacterial infection; format: in vivo, ICR mice; conditions: three times a day for 7 days; for Number of mice that died on each day after infection: day 4 / Number of mice that died on each day after infection: day 5 / Number of mice that died on each day after infection: day 6 / Number of mice that died on each day after infection: day 7 / Number of mice that died on each day after infection: day 8 / Average survival times (Days): n = 10; for Average survival times (Days): observed for 14 d
# Method: Both female and male ICR mice were used in the test, half of the female and male mice were taken and randomly assigned into groups, with 10 mice in each group, and kept in separate cages. The mice were divided into a blank control group, a negative control group, a positive control Levofloxacin group, and AMPs LV-1 to LV-30 groups. An Escherichia coli ATCC 25922 bacterial suspension was prepared, a concentration of the suspension was adjusted 1×10^7 CFU/mL for subsequent use. Except for the blank control group, all other mice were injected with the Escherichia coli suspension (0.2 mL, 1×10^7 CFU/mL), into abdominal cavity of the mice, to establish a model. After the model was successfully established, the mice were given drug immediately according to their body weights. Except for the blank control group and the negative control group, the mice in all other groups were gavaged with different compounds, three times a day for 7 consecutive days. The mice were then observed for 14 d. The death of mice in each group was observed, and survival time of the mice was recorded. Results of the effect of the oral formulations of AMPs LV-1 to LV-30 on the survival time of mice infected with Escherichia coli are shown in Table 11.
# [2] = test system: Shigella flexneri ATCC 12022; experiment: MIC against clinically common bacterial strain; format: cell-based
# From the text: According to the Standards of Clinical and Laboratory Standards Institute (CLSI) of the USA for antimicrobial drug susceptibility test operation standards, the micronutrient serial twofold dilution method was used further determine MICs of 30 AMPs (S/N: LV-1 to LV-30) 10 clinically common sensitive strains and 6 fungi in clinical practice. The experiment was repeated 5 times in parallel.
# rabbit red blood cells = format: cell-based; conditions: red cells of rabbit, 1 h
# [3] = test system: Staphylococcus aureus (NRS 384); experiment: microbe, parasite or virus in culture; format: cell-based; conditions: NRS 384
# Method in brief: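 MICs were read against S. aureus strain NRS 384 using twofold serial dilution by CLSI microdilution rules. Levofloxacin and Cbf-K16 were the reference controls, and the test was repeated 5 times in parallel.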
SMILES,Number of mice that died on each day after infection: day 4 ([1]; 1 mg/kg gavage) [Mouse],Number of mice that died on each day after infection: day 5 ([1]; 1 mg/kg gavage) [Mouse],Number of mice that died on each day after infection: day 6 ([1]; 1 mg/kg gavage) [Mouse],Number of mice that died on each day after infection: day 7 ([1]; 1 mg/kg gavage) [Mouse],Number of mice that died on each day after infection: day 8 ([1]; 1 mg/kg gavage) [Mouse],Average survival times (Days) ([1]; 1 mg/kg gavage),MIC Shigella flexneri ATCC 12022 [2] [µg/mL],"MHC (minimum hemolytic concentration, lowest concentration causing 10% hemolysis) (rabbit red blood cells) [µg/mL]",MIC against Staphylococcus aureus (NRS 384) [3] [µg/mL],further results
"CC(=O)N[C@H](CCCNC(=N)N)C(=O)N[C@H](CCCCN)C(=O)N[C@H](CC(C)C)C(=O)N[C@H](CC(C)C)C(=O)N[C@H](Cc1ccc(F)c(F)c1)C(=O)N[C@H](CCCCN)C(=O)N[C@H](CC(C)C)C(=O)N[C@H](CCCCN)C(=O)N[C@H](Cc1ccc(F)c(F)c1)C(=O)N[C@H](CCCCN)C(=O)N[C@H](CCCNC(=N)N)C(N)=O [LV-6] (Ac-[dR][dK][dL][dL][dPhe(3,4-F2)][dK][dL][dK][dPhe(3,4-F2)][dK][dR]-NH2)",1,0,1,1,1,10.9*** Days,4,>1000,1,"Number of mice that died on each day after infection: day 4 ([1]; 0.2 mg/kg gavage): 1 Mouse; Number of mice that died on each day after infection: day 5 ([1]; 0.2 mg/kg gavage): 3 Mouse; Number of mice that died on each day after infection: day 6 ([1]; 0.2 mg/kg gavage): 2 Mouse; Number of mice that died on each day after infection: day 7 ([1]; 0.2 mg/kg gavage): 0 Mouse; Number of mice that died on each day after infection: day 8 ([1]; 0.2 mg/kg gavage): 0 Mouse; Average survival times (Days) ([1]; 0.2 mg/kg gavage): 8.7** Days; Number of mice that died on each day after infection: day 4 ([1]; 5 mg/kg gavage): 2 Mouse; Number of mice that died on each day after infection: day 5 ([1]; 5 mg/kg gavage): 1 Mouse; Number of mice that died on each day after infection: day 6 ([1]; 5 mg/kg gavage): 1 Mouse; Number of mice that died on each day after infection: day 7 ([1]; 5 mg/kg gavage): 0 Mouse; Number of mice that died on each day after infection: day 8 ([1]; 5 mg/kg gavage): 0 Mouse; Average survival times (Days) ([1]; 5 mg/kg gavage): 10.3*** Days; survival time of mice infected with Escherichia coli ([1]; gavage, observed 14 d): superior to those of the Levofloxacin group"
CC(=O)N[C@H](CCCNC(=N)N)C(=O)N[C@H](CCCCN)C(=O)N[C@H](CC(C)C)C(=O)N[C@H](CC(C)C)C(=O)N[C@H](Cc1ccc(Cl)cc1)C(=O)N[C@H](CCCCN)C(=O)N[C@H](CC(C)C)C(=O)N[C@H](CCCCN)C(=O)N[C@H](Cc1ccc(Cl)cc1)C(=O)N[C@H](CCCCN)C(=O)N[C@H](CCCNC(=N)N)C(N)=O [LV-7] (Ac-[dR][dK][dL][dL][dPhe(4-Cl)][dK][dL][dK][dPhe(4-Cl)][dK][dR]-NH2),2,2,0,1,1,8.9** Days,4,>1000,1,–
"CC(=O)N[C@H](CCCNC(=N)N)C(=O)N[C@H](CCCCN)C(=O)N[C@H](CC(C)C)C(=O)N[C@H](CC(C)C)C(=O)N[C@H](Cc1ccc(Cl)c(Cl)c1)C(=O)N[C@H](CCCCN)C(=O)N[C@H](CC(C)C)C(=O)N[C@H](CCCCN)C(=O)N[C@H](Cc1ccc(Cl)c(Cl)c1)C(=O)N[C@H](CCCCN)C(=O)N[C@H](CCCNC(=N)N)C(N)=O [LV-8] (Ac-[dR][dK][dL][dL][dPhe(3,4-Cl2)][dK][dL][dK][dPhe(3,4-Cl2)][dK][dR]-NH2)",2,1,0,2,0,9.7** Days,4,>1000,1,–
CC(=O)N[C@H](CCCNC(=N)N)C(=O)N[C@H](CCCCN)C(=O)N[C@H](CC(C)C)C(=O)N[C@H](CC(C)C)C(=O)N[C@H](Cc1ccc(C(F)(F)F)cc1)C(=O)N[C@H](CCCCN)C(=O)N[C@H](CC(C)C)C(=O)N[C@H](CCCCN)C(=O)N[C@H](Cc1ccc(C(F)(F)F)cc1)C(=O)N[C@H](CCCCN)C(=O)N[C@H](CCCNC(=N)N)C(N)=O [LV-9] (Ac-[dR][dK][dL][dL][dPhe(4-CF3)][dK][dL][dK][dPhe(4-CF3)][dK][dR]-NH2),1,1,1,2,0,9.9** Days,2,>1000,1,–
CC(=O)N[C@H](CCCCN)C(=O)N[C@H](CCCCN)C(=O)N[C@H](CC(C)C)C(=O)N[C@H](CC(C)C)C(=O)N[C@H](Cc1ccc(Br)cc1)C(=O)N[C@H](CCCNC(=N)N)C(=O)N[C@H](CC(C)C)C(=O)N[C@H](CCCCN)C(=O)N[C@H](Cc1ccc(Br)cc1)C(=O)N[C@H](CCCNC(=N)N)C(=O)N[C@H](CCCCN)C(N)=O [LV-10] (Ac-[dK][dK][dL][dL][dPhe(4-Br)][dR][dL][dK][dPhe(4-Br)][dR][dK]-NH2),0,2,2,0,1,10.0*** Days,2,>1000,1,–
CC(=O)N[C@H](CCCNC(=N)N)C(=O)N[C@H](CCCCN)C(=O)N[C@H](CC(C)C)C(=O)N[C@H](CC(C)C)C(=O)N[C@H](Cc1ccc(C)cc1)C(=O)N[C@H](CCCCN)C(=O)N[C@H](CC(C)C)C(=O)N[C@H](CCCCN)C(=O)N[C@H](Cc1ccc(C)cc1)C(=O)N[C@H](CCCCN)C(=O)N[C@H](CCCNC(=N)N)C(N)=O [LV-11] (Ac-[dR][dK][dL][dL][dPhe(4-Me)][dK][dL][dK][dPhe(4-Me)][dK][dR]-NH2),1,1,1,1,2,9.4** Days,4,>1000,1,–
